Test results: US12522587B2, “Cancer treatments targeting cancer stem cells” (Remedy Plan, Inc., priority 2018, dated 2026)

Legend:
[1] = tested on: Primary CD-1 mouse hepatocytes; test: Hepatocyte toxicity assay (CellTiter Glo); format: cell-based; conditions: 10 μM daily for 4 days, FIG. 4
Procedure: Fresh Primary CD-1 mouse hepatocytes were obtained from XenoTech in 96-well plates the day after perfusion. After 24 hrs of recovery at 37° C. using OptiCulture Hepatocyte Media, medium was replaced containing either DMSO alone (no drug treatment) or 10 μM of compound I-1 daily for 4 days. Cell viability was measured using CellTiter Glo 2.0 Kit from PROMEGA, following manufacturer instructions. Luminescence was measured using a SynergyHTX plate reader with a 1 sec integration.
Normal, healthy mouse hepatocytes were treated with DMSO alone (no drug treatment) or 10 µM of compound I-1 for 4 days. Cell health was measured using CELLTITER GLO reagent, which provided a luminescence readout as a measurement of total ATP concentration.

nanog = test: RT-qPCR of nanog RNA in AGS cells; format: cell-based, human; conditions: 10 μM, 4 days, FIG. 3
Procedure: Approximately 2.5×10^5 AGS cells were treated for 4 days with DMSO alone (no drug treatment) or 10 μM compound I-1 in DMSO. Cells were lysed and RNA was extracted using Zymo's Quick RNA-Microprep following manufacturer instructions. 100 ng of RNA were reverse transcribed using MuLV reverse transcriptase (New England Biolabs, USA). qPCR was performed using 2 ul of cDNA and Luna Universal qPCR Master Mix from NEB in a Stratagene Mx3005P.
AGS gastric cancer cells were treated with either DMSO alone (no drug treatment) or 10 µM of compound I-1 for 4 days. RNA was isolated and nanog RNA levels were measured by RT-qPCR.

AGS cells = test: Kinetic cell viability with AGS cells (RealTime Glo MT); format: cell-based, human
Procedure: Approximately 50,000 AGS cells were seeded per well of a 96-well plate in media containing NanoLuc Luciferase and MT Cell Viability Substrate provided on the RealTime Glo MT Cell Viability Assay Kit from PROMEGA. Four hours after plating, cells were treated with DMSO alone (no drug treatment) or decreasing concentrations of a compound of the disclosure to achieve final concentrations of 20, 10, 5, and 2.5 μM. Luminescence Units (RLU) were measured every 16-20 hours using a SynergyHTX plate reader with a 30 msec integration (see FIG. 1).
Approximately 50,000 AGS cells were seeded per well of a 96-well plate in media containing NanoLuc Luciferase and MT Cell Viability Substrate provided on the RealTime Glo MT Cell Viability Assay Kit from PROMEGA. Four hours after plating, cells were treated with DMSO alone (no drug treatment) or decreasing concentrations of compound I-1 to achieve final concentrations of 20, 10, 5, and 2.5 μM. Luminescence Units (RLU) were measured every 16-20 hrs using a SynergyHTX plate reader with a 30 msec integration.
AGS gastric cancer cells were treated with either DMSO alone (no drug treatment) or various concentrations of compound I-1 (including 2.5 µM, 5 µM, 10 µM, and 20 µM) for 4 days. Cell health and replication were measured using REALTIME-GLO MT Cell Viability Assay, which provided a luminescence readout as a measurement of cell number and health.

CCC(=O)N1CCc2cc(-c3ccc(C(=O)NCc4cccnc4)cc3)ccc21 [Compound I-1]
toxicity to healthy hepatocytes [1]: no toxicity
nanog expression in gastric cancer cells (nanog): decreased
growth of gastric cancer cells (AGS cells; AGS cells, 2.5-20 μM, 4 days, FIG. 5): inhibited growth
populations of embryonic-like gastric cell populations in gastric cancer (AGS cells; AGS cells, 20, 10, 5 and 2.5 μM, FIG. 1): depleted
